What was measured:
barnyardgrass [1] = experiment: Test Example 1: foliage treatment, upland pot test; format: in vivo, Echinochloa crus-galli L.; settings: active ingredient 500 g/ha, observed 18th to 23rd day, 0 = non-treated, 100 = complete kill
Method in brief: (§1)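 Sow in upland field soil; grow to leaf stage (barnyardgrass 1.3–2.8, soybean 0.1–0.4, wheat 1.3–2.4, rice 1.2–2.6); spray foliage with compound in water, 500 L/ha, spreader 0.1% (v/v); assess visually at 18–23 d, 0 (as untreated) to 100 (full kill).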

crabgrass [2] = experiment: Test Example 1: foliage treatment, upland pot test; format: in vivo, Digitaria sanguinalis L.; settings: active ingredient 500 g/ha, observed 18th to 23rd day, 0 = non-treated, 100 = complete kill
green foxtail [3] = experiment: Test Example 1: foliage treatment, upland pot test; format: in vivo, Setaria viridis L.; settings: active ingredient 500 g/ha, observed 18th to 23rd day, 0 = non-treated, 100 = complete kill
redroot pigweed [4] = experiment: Test Example 1: foliage treatment, upland pot test; format: in vivo, Amaranthus retroflexus L.; settings: active ingredient 500 g/ha, observed 18th to 23rd day, 0 = non-treated, 100 = complete kill
prickly sida [5] = experiment: Test Example 1: foliage treatment, upland pot test; format: in vivo, Sida spinosa L.; settings: active ingredient 500 g/ha, observed 18th to 23rd day, 0 = non-treated, 100 = complete kill
velvetleaf [6] = experiment: Test Example 1: foliage treatment, upland pot test; format: in vivo, Abutilon theophrasti MEDIC.; settings: active ingredient 500 g/ha, observed 18th to 23rd day, 0 = non-treated, 100 = complete kill
rice [7] = experiment: Test Example 1: foliage treatment, upland pot test; format: in vivo, Oryza sativa L.; settings: crop, active ingredient 500 g/ha, observed 18th to 23rd day, 0 = non-treated, 100 = complete kill
Method in brief: as §1

wheat [8] = experiment: Test Example 1: foliage treatment, upland pot test; format: in vivo, Triticum spp.; settings: crop, active ingredient 500 g/ha, observed 18th to 23rd day, 0 = non-treated, 100 = complete kill
Method in brief: as §1

corn [9] = experiment: Test Example 1: foliage treatment, upland pot test; format: in vivo, Zea mays L.; settings: crop, active ingredient 500 g/ha, observed 18th to 23rd day, 0 = non-treated, 100 = complete kill
Method in brief: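 In this upland pot foliage test, corn plants at 2.1 to 3.2 leaf stages were sprayed by a small size sprayer. The spray was a conventionally formulated wettable powder or emulsifiable concentrate weighed to a set active ingredient amount, diluted in water at 500 L/ha, plus 0.1% (v/v) agricultural spreader. Visual assessment on days 18 to 23 gave growth controlling degree (%), where 0 equals untreated and 100 means complete kill.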

soybean [10] = experiment: Test Example 1: foliage treatment, upland pot test; format: in vivo, Glycine max Merr.; settings: crop, active ingredient 500 g/ha, observed 18th to 23rd day, 0 = non-treated, 100 = complete kill
Method in brief: as §1

barnyardgrass [11] = experiment: Test Example 2: soil surface treatment, upland pot test; format: in vivo, Echinochloa crus-galli L.; settings: observed 20th to 28th day
Method in brief: (§2)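 Upland soil in pots of 1/170,000 ha is sown; on day 1 after sowing the formulated compound (wettable powder or emulsifiable concentrate, predetermined a.i. amount, water volume 1,500 L/ha) is applied to the soil surface with a small sprayer. Percent control is judged by eye 20–28 days later.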

crabgrass [12] = experiment: as above; format: in vivo, Digitaria sanguinalis L.; settings: observed 20th to 28th day
Method in brief: as §2

green foxtail [13] = experiment: as above; format: in vivo, Setaria viridis L.; settings: observed 20th to 28th day
Method in brief: as §2

redroot pigweed [14] = experiment: as above; format: in vivo, Amaranthus retroflexus L.; settings: observed 20th to 28th day
Method in brief: as §2

prickly sida [15] = experiment: as above; format: in vivo, Sida spinosa L.; settings: observed 20th to 28th day
Method in brief: as §2

velvetleaf [16] = experiment: as above; format: in vivo, Abutilon theophrasti MEDIC.; settings: observed 20th to 28th day
Method in brief: as §2

rice [17] = experiment: as above; format: in vivo, Oryza sativa L.; settings: observed 20th to 28th day
Method in brief: as §2

wheat [18] = experiment: as above; format: in vivo, Triticum spp.; settings: observed 20th to 28th day
Method in brief: as §2

corn [19] = experiment: as above; format: in vivo, Zea mays L.; settings: observed 20th to 28th day
Method in brief: as §2

soybean [20] = experiment: as above; format: in vivo, Glycine max Merr.; settings: observed 20th to 28th day
Method in brief: as §2

barnyardgrass [21] = experiment: Test Example 3: paddy pot test, application under submerged conditions; format: in vivo, Echinochloa crus-galli L.; settings: submerged application at 0.5 leaf stage, visually observed 14 days after application, 0 = non-treated, 100 = complete kill
Method in brief: (§3)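 Visual rating of growth control (0% equals untreated, 100% complete kill) made 14 days after treatment. Compound, formulated as wettable powder or emulsifiable concentrate and diluted in water, was pipetted under submerged conditions at predetermined active-ingredient doses once weeds reached 0.5-leaf (barnyardgrass, bulrush) or primary-leaf (wapato, from tubers) stage. Pots of greenhouse paddy soil held 3–4 cm flooding.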

japanese bulrush = experiment: as above; format: in vivo, Scirpus juncoides; settings: submerged application at 0.5 leaf stage, visually observed 14 days after application, 0 = non-treated, 100 = complete kill
Method in brief: as §3

rice (var. Nihonbare) = experiment: Test Example 3: paddy pot test, transplanted rice; format: in vivo, Oryza sativa L.; settings: applied 4th day after transplantation, visually observed 21st day after application, 0 = non-treated, 100 = complete kill
Method in brief: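 Visual crop-injury rating (0 = as untreated, 100 = complete kill, %) taken 21 days post-application. Treatment: formulated compound, water-diluted, pipetted into 3–4 cm flood water at a preset active-ingredient dose, 4 days after transplanting 2-leaf Nihonbare rice 3 cm deep in puddled paddy soil.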

japanese ribbon wapato = experiment: Test Example 3: paddy pot test, application under submerged conditions; format: in vivo, Sagittaria pygniaea; settings: active ingredient 250 g/ha; submerged application at primary leaf stage; visually observed 14 days after application; 0 = non-treated, 100 = complete kill
Method in brief: as §3

| SMILES | Growth controlling degree (%) Barnyardgrass (barnyardgrass [1]) | Growth controlling degree (%) Crabgrass (crabgrass [2]) | Growth controlling degree (%) Green foxtail (green foxtail [3]) | Growth controlling degree (%) Redroot pigweed (redroot pigweed [4]) | Growth controlling degree (%) Prickly sida (prickly sida [5]) | Growth controlling degree (%) Velvetleaf (velvetleaf [6]) | Growth controlling degree (%) Rice (rice [7]) | Growth controlling degree (%) wheat (wheat [8]) | Growth controlling degree (%) Corn (corn [9]) | Growth controlling degree (%) Soybean (soybean [10]) | Growth controlling degree (%) Barnyardgrass (barnyardgrass [11]; active ingredient 500 g/ha) | Growth controlling degree (%) Crabgrass (crabgrass [12]; active ingredient 500 g/ha) | Growth controlling degree (%) Green foxtail (green foxtail [13]; active ingredient 500 g/ha) | Growth controlling degree (%) Redroot pigweed (redroot pigweed [14]; active ingredient 500 g/ha) | Growth controlling degree (%) Prickly sida (prickly sida [15]; active ingredient 500 g/ha) | Growth controlling degree (%) Velvetleaf (velvetleaf [16]; active ingredient 500 g/ha) | Growth controlling degree (%) Rice (rice [17]; active ingredient 500 g/ha) | Growth controlling degree (%) Barnyardgrass (barnyardgrass [21]; active ingredient 250 g/ha) | Growth controlling degree (%) Japanese bulrush (japanese bulrush; active ingredient 250 g/ha) | Growth controlling degree (%) Rice (rice (var. Nihonbare); active ingredient 250 g/ha) | further results |
| --- | --- | --- | --- | --- | --- | --- | --- | --- | --- | --- | --- | --- | --- | --- | --- | --- | --- | --- | --- | --- | --- |
| CC(C)C(c1cnccc1C(F)(F)F)N(C)C(=O)CC1Cc2ccccc2C1 (stereo not drawn) [I-191] | 70% | 70% | 80% | 70% | 80% | 80% | 20% | 10% | 60% | 50% | 100% | 98% | 100% | 50% | 10% | 10% | 20% |  |  |  | Growth controlling degree (%) wheat (wheat [18]; active ingredient 500 g/ha): 20%; Growth controlling degree (%) Corn (corn [19]; active ingredient 500 g/ha): 40%; Growth controlling degree (%) Soyabean (soybean [20]; active ingredient 500 g/ha): 30%; Growth controlling degree (%) Barnyardgrass (barnyardgrass [21]; active ingredient 500 g/ha): 100%; Growth controlling degree (%) Japanese bulrush (japanese bulrush; active ingredient 500 g/ha): 90%; Growth controlling degree (%) Rice (rice (var. Nihonbare); active ingredient 500 g/ha): 20% |
| CC(C)CC(=O)N(C)C(c1cnccc1C(F)(F)F)C(C)C (stereo not drawn) [I-193] | 95% | 90% | 80% | 80% | 90% | 60% | 80% | 80% | 80% | 80% |  |  |  |  |  |  |  | 100% | 95% | 30% | Growth controlling degree (%) Barnyardgrass (barnyardgrass [11]; active ingredient 250 g/ha): 100%; Growth controlling degree (%) Crabgrass (crabgrass [12]; active ingredient 250 g/ha): 100%; Growth controlling degree (%) Green foxtail (green foxtail [13]; active ingredient 250 g/ha): 100%; Growth controlling degree (%) Redroot pigweed (redroot pigweed [14]; active ingredient 250 g/ha): 10%; Growth controlling degree (%) Prickly sida (prickly sida [15]; active ingredient 250 g/ha): 80%; Growth controlling degree (%) Velvetleaf (velvetleaf [16]; active ingredient 250 g/ha): 10%; Growth controlling degree (%) Rice (rice [17]; active ingredient 250 g/ha): 80%; Growth controlling degree (%) wheat (wheat [18]; active ingredient 250 g/ha): 60%; Growth controlling degree (%) Corn (corn [19]; active ingredient 250 g/ha): 70%; Growth controlling degree (%) Soyabean (soybean [20]; active ingredient 250 g/ha): 10% |
| CC(C)C(c1cnccc1C(F)(F)F)N(C)C(=O)CC(C)(C)C (stereo not drawn) [I-194] | 70% | 80% | 70% | 50% | 70% | 10% | 50% | 40% | 20% | 40% |  |  |  |  |  |  |  | 98% | 98% | 30% | Growth controlling degree (%) Barnyardgrass (barnyardgrass [11]; active ingredient 250 g/ha): 100%; Growth controlling degree (%) Crabgrass (crabgrass [12]; active ingredient 250 g/ha): 100%; Growth controlling degree (%) Green foxtail (green foxtail [13]; active ingredient 250 g/ha): 100%; Growth controlling degree (%) Redroot pigweed (redroot pigweed [14]; active ingredient 250 g/ha): 50%; Growth controlling degree (%) Prickly sida (prickly sida [15]; active ingredient 250 g/ha): 40%; Growth controlling degree (%) Velvetleaf (velvetleaf [16]; active ingredient 250 g/ha): 30%; Growth controlling degree (%) Rice (rice [17]; active ingredient 250 g/ha): 40%; Growth controlling degree (%) wheat (wheat [18]; active ingredient 250 g/ha): 20%; Growth controlling degree (%) Corn (corn [19]; active ingredient 250 g/ha): 10%; Growth controlling degree (%) Soyabean (soybean [20]; active ingredient 250 g/ha): 10%; Growth controlling degree (%) Japanese ribbon wapato (japanese ribbon wapato): 30% |
| CC(C)C(=O)N(C)C(c1cnccc1C(F)(F)F)C(C)C (stereo not drawn) [I-198] | 70% | 80% | 60% | 70% | 70% | 40% | 80% | 70% | 70% | 60% | 100% | 100% | 100% | 80% | 90% | 70% | 98% | 100% | 100% | 60% | Growth controlling degree (%) wheat (wheat [18]; active ingredient 500 g/ha): 98%; Growth controlling degree (%) Corn (corn [19]; active ingredient 500 g/ha): 70%; Growth controlling degree (%) Soyabean (soybean [20]; active ingredient 500 g/ha): 90% |

— patent US20050239656A1, “Pyridine compounds or salts thereof and herbicides containing the same” (priority 2002, published 2005)
